Source: patent publication US10344025B2, “GLS1 inhibitors for treating disease” (Board of Regents, The University of Texas System, priority 2014, dated 2019)
pEC50, pIC50: −log10 of the molar value.

How the values were obtained:
[1] = molecular target: purified recombinant human GAC (GLS1) (Homo sapiens (Human), UniProt O94925); test: GLS1 Enzymatic Activity Assay (dual-coupled enzymatic assay, resorufin/Amplex UltraRed readout); assay type: biochemical;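 further: glutamate from GAC coupled via glutamate oxidase and peroxidase to resorufin, read as fluorescence (ex 530, em 590 nm) kinetically or at 20 min, four-parameter logistic IC50 fit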
[2] = tested on: A549 cells; test: Proliferation Assay (A549 viability, Cell Titer Fluor, 72 hours); assay type: cell-based; conditions: Homo sapiens
Outline: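 A549 cells seeded at 1000 cells/well, rested 24 h, then exposed to compound in 0.5% DMSO for 72 h at 37 °C. Viability read by Cell Titer Fluor fluorescence; IC50 from four-parameter logistic fit.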

purified recombinant human GAC (GLS1), sequence (O94925 other isoform, or with tags, fused parts or gaps): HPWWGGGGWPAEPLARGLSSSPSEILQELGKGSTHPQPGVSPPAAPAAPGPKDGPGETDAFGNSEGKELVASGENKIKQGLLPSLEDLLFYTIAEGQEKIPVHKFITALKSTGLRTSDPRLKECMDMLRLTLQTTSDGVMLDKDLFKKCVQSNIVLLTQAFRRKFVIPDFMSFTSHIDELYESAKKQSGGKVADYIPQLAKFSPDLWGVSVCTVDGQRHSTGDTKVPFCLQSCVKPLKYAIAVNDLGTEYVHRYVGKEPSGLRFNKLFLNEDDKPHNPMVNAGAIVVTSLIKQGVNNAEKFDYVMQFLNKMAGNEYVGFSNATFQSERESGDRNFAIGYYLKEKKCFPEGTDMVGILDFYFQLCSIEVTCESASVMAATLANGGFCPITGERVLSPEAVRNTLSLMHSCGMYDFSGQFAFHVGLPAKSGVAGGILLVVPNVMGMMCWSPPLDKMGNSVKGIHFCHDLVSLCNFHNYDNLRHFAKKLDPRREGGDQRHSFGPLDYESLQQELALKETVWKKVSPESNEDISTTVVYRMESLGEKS

Row | Compound | pIC50 [1] | pEC50 ([2]; A549, 72 h) | pEC50 [2]
1 | O=C(Cc1cccnc1)Nc1cn(CCCCn2cc(C(=O)NCC3CCCCC3)nn2)nn1 [Example 284, N-(cyclohexylmethyl)-1-(4-{4-[2-(pyridin-3-yl)acetamido]-1H-1,2,3-triazol-1-yl}butyl)-1H-1,2,3-triazole-4-carboxamide] | 6.30 to 7.00 | 5.30 to 6.30 | –
2 | CNC(=O)c1cn(CCCCc2ccc(NC(=O)CC3CCOCC3)nn2)nn1 [Example 547, N-methyl-1-(4-{6-[2-(oxan-4-yl)acetamido]pyridazin-3-yl}butyl)-1H-1,2,3-triazole-4-carboxamide] | 6.30 to 7.00 | 5.30 to 6.30 | –
3 | O=C(Nc1nnc(CCC(F)Cn2cc(C(=O)NCc3cc(OC(F)(F)F)ccc3F)nn2)s1)c1ccncc1 (stereo not drawn) [Example 594, N-(5-(3-fluoro-4-(4-((2-fluoro-5-(trifluoromethoxy)benzyl)carbamoyl)-1H-1,2,3-triazol-1-yl)butyl)-1,3,4-thiadiazol-2-yl)isonicotinamide] | > 7.00 | 5.30 to 6.30 | –
4 | O=C(NCc1cccc(OC(F)(F)F)c1)c1cn(CCC(F)Cn2cc(C(=O)NCc3cc(C4CC4)ccn3)nn2)nn1 (stereo not drawn) [Example 147] | > 7.00 | > 7.00 | –
5 | Cc1ccc(CC(=O)Nc2cn(CC(F)CCn3cc(C(=O)NCc4cc(C(F)(F)F)ccn4)nn3)nn2)cn1 (stereo not drawn) [Example 400, 1-(3-fluoro-4-{4-[2-(6-methylpyridin-3-yl)acetamido]-1H-1,2,3-triazol-1-yl}butyl)-N-{[4-(trifluoromethyl)pyridin-2-yl]methyl}-1H-1,2,3-triazole-4-carboxamide] | > 7.00 | 6.30 to 7.00 | –
6 | O=C(NCc1ccccc1)c1cn(CCCCc2nnc(C(=O)NCCO)s2)nn1 [Example 41, 5-{4-[4-(benzylcarbamoyl)-1H-1,2,3-triazol-1-yl]butyl}-N-(2-hydroxyethyl)-1,3,4-thiadiazole-2-carboxamide] | 5.30 to 6.30 | 5.30 to 6.30 | –
7 | O=C(NCc1cccc(OC(F)(F)F)c1)c1cn(CCCCn2cc(C(=O)NC[C@@H](O)c3ccccc3)nn2)nn1 [Example 138, N-[(2S)-2-hydroxy-2-phenylethyl]-1-{4-[4-({[3-(trifluoromethoxy)phenyl]methyl}carbamoyl)-1H-1,2,3-triazol-1-yl]butyl}-1H-1,2,3-triazole-4-carboxamide] | 6.30 to 7.00 | 6.30 to 7.00 | –
8 | O=C(Cc1cccc(OC(F)(F)F)c1)Nc1ccc(CCCCc2nnc(C(=O)NCC3COC3)s2)nn1 [Example 33, N-(oxetan-3-ylmethyl)-5-[4-(6-{2-[3-(trifluoromethoxy)phenyl]acetamido}pyridazin-3-yl)butyl]-1,3,4-thiadiazole-2-carboxamide] | > 7.00 | > 7.00 | –
9 | Cc1ccc(CNC(=O)c2cn(CCCCn3cc(NC(=O)CC4CCCCC4)nn3)nn2)cn1 [Example 318, 1-{4-[4-(2-cyclohexylacetamido)-1H-1,2,3-triazol-1-yl]butyl}-N-[(6-methylpyridin-3-yl)methyl]-1H-1,2,3-triazole-4-carboxamide] | > 7.00 | > 7.00 | –
10 | O=C(Cc1ccccn1)Nc1nnc(CCC(F)Cn2cc(C(=O)NCc3cc(C(F)(F)F)ccn3)nn2)s1 (stereo not drawn) [Example 540, 1-(2-fluoro-4-(5-(2-(pyridin-2-yl)acetamido)-1,3,4-thiadiazol-2-yl)butyl)-N-((4-(trifluoromethyl)pyridin-2-yl)methyl)-1H-1,2,3-triazole-4-carboxamide] | > 7.00 | – | > 7.00
11 | O=C(NCc1cc(C(F)(F)F)ccn1)c1cn(CCC(F)Cn2cc(C(=O)NCc3ccccc3)nn2)nn1 (stereo not drawn) [Example 450, N-benzyl-1-{2-fluoro-4-[4-({[4-(trifluoromethyl)pyridin-2-yl]methyl}carbamoyl)-1H-1,2,3-triazol-1-yl]butyl}-1H-1,2,3-triazole-4-carboxamide] | > 7.00 | 6.30 to 7.00 | –
12 | O=C(NCC(F)(F)F)c1cn(CC(F)CCc2nnc(C(=O)NCc3cncc(C(F)(F)F)c3)s2)nn1 (stereo not drawn) [Example 506, 5-(3-fluoro-4-{4-[(2,2,2-trifluoroethyl)carbamoyl]-1H-1,2,3-triazol-1-yl}butyl)-N-{[5-(trifluoromethyl)pyridin-3-yl]methyl}-1,3,4-thiadiazole-2-carboxamide] | 6.30 to 7.00 | 6.30 to 7.00 | –
13 | O=C(NCc1cccc(C(F)(F)F)c1)c1cn(CCCCn2cc(C(=O)NCc3cc(C(F)(F)F)ccn3)nn2)nn1 [Example 97, 1-{4-[4-({[3-(trifluoromethyl)phenyl]methyl}carbamoyl)-1H-1,2,3-triazol-1-yl]butyl}-N-{[4-(trifluoromethyl)pyridin-2-yl]methyl}-1H-1,2,3-triazole-4-carboxamide] | > 7.00 | > 7.00 | –

Further lines, with some results ahead:

Row | pIC50 [1] | pEC50 ([2]; A549, 72 h) | Compound | pEC50 [2]
14 | > 7.00 | 6.30 to 7.00 | CC(=O)Nc1ccc(CCCCn2cc(C(=O)NCc3cc(C(F)(F)F)ccn3)nn2)nn1 [Example 175, 1-[4-(6-acetamidopyridazin-3-yl)butyl]-N-{[4-(trifluoromethyl)pyridin-2-yl]methyl}-1H-1,2,3-triazole-4-carboxamide] | –
15 | > 7.00 | > 7.00 | O=C(CC1CCCC1)Nc1cn(CCCCn2cc(C(=O)NCc3cccc(OC(F)(F)F)c3)nn2)nn1 [Example 295, 1-{4-[4-(2-cyclopentylacetamido)-1H-1,2,3-triazol-1-yl]butyl}-N-{[3-(trifluoromethoxy)phenyl]methyl}-1H-1,2,3-triazole-4-carboxamide] | –
16 | > 7.00 | > 7.00 | O=C(NCc1cncc(C(F)(F)F)c1)c1cn(CCC(F)Cn2cc(C(=O)NCc3cc(C(F)(F)F)ccn3)nn2)nn1 (stereo not drawn) [Example 476, 1-{2-fluoro-4-[4-({[5-(trifluoromethyl)pyridin-3-yl]methyl}carbamoyl)-1H-1,2,3-triazol-1-yl]butyl}-N-{[4-(trifluoromethyl)pyridin-2-yl]methyl}-1H-1,2,3-triazole-4-carboxamide] | –
17 | > 7.00 | > 7.00 | CNC(=O)c1cn(CC(F)CCc2nnc(NC(=O)Cc3cc(OC(F)(F)F)ccc3F)s2)nn1 (stereo not drawn) [Example 518, 1-[2-fluoro-4-(5-{2-[2-fluoro-5-(trifluoromethoxy)phenyl]acetamido}-1,3,4-thiadiazol-2-yl)butyl]-N-methyl-1H-1,2,3-triazole-4-carboxamide] | –
18 | > 7.00 | > 7.00 | Cc1ccc(CNC(=O)c2nnc(CCC(F)Cn3cc(C(=O)NCc4cccc(OC(F)(F)F)c4)nn3)s2)cn1 (stereo not drawn) [Example 442, 5-{3-fluoro-4-[4-({[3-(trifluoromethoxy)phenyl]methyl}carbamoyl)-1H-1,2,3-triazol-1-yl]butyl}-N-[(6-methylpyridin-3-yl)methyl]-1,3,4-thiadiazole-2-carboxamide] | –
19 | > 7.00 | > 7.00 | O=C(Cc1cccc(OC(F)(F)F)c1)Nc1cn(CC(F)CCn2cc(C(=O)NCc3ccc(C(F)(F)F)cn3)nn2)nn1 (stereo not drawn) [Example 486, 1-[3-fluoro-4-(4-{2-[3-(trifluoromethoxy)phenyl]acetamido}-1H-1,2,3-triazol-1-yl)butyl]-N-{[5-(trifluoromethyl)pyridin-2-yl]methyl}-1H-1,2,3-triazole-4-carboxamide] | –
20 | 6.30 to 7.00 | 5.30 to 6.30 | Cc1ccc(CC(=O)Nc2cn(CCCCn3cc(C(=O)NCC4CCCC4)nn3)nn2)cn1 [Example 311, N-(cyclopentylmethyl)-1-(4-{4-[2-(6-methylpyridin-3-yl)acetamido]-1H-1,2,3-triazol-1-yl}butyl)-1H-1,2,3-triazole-4-carboxamide] | –
21 | > 7.00 | > 7.00 | COc1ccc(CNC(=O)c2cn(CC(F)CCc3nnc(NC(=O)Cc4cc(OC(F)(F)F)ccc4F)s3)nn2)cn1 (stereo not drawn) [Example 219, 1-(2-fluoro-4-(5-(2-(2-fluoro-5-(trifluoromethoxy)phenyl)acetamido)-1,3,4-thiadiazol-2-yl)butyl)-N-((6-methoxypyridin-3-yl)methyl)-1H-1,2,3-triazole-4-carboxamide] | –
22 | > 7.00 | > 7.00 | O=C(NCc1cccc(C2CC2)c1)c1cn(CCCCn2cc(C(=O)NCc3cncc(C(F)(F)F)c3)nn2)nn1 [Example 133, 1-[4-(4-{[(3-cyclopropylphenyl)methyl]carbamoyl}-1H-1,2,3-triazol-1-yl)butyl]-N-{[5-(trifluoromethyl)pyridin-3-yl]methyl}-1H-1,2,3-triazole-4-carboxamide] | –
23 | > 7.00 | > 7.00 | CC(=O)Nc1ccc(CCC(F)Cn2cc(C(=O)NCc3cc(C(F)(F)F)ccn3)nn2)nn1 (stereo not drawn) [Example 236, 1-(4-(6-acetamidopyridazin-3-yl)-2-fluorobutyl)-N-((4-(trifluoromethyl)pyridin-2-yl)methyl)-1H-1,2,3-triazole-4-carboxamide] | –
24 | > 7.00 | > 7.00 | O=C(Cc1ccccc1)Nc1ccc(CCCCc2nnc(C(=O)NCCc3ccccc3)s2)nn1 [Example 26, 5-{4-[6-(2-phenylacetamido)pyridazin-3-yl]butyl}-N-(2-phenylethyl)-1,3,4-thiadiazole-2-carboxamide] | –
25 | > 7.00 | 6.30 to 7.00 | CNC(=O)c1cn(CCCCc2ccc(NC(=O)Cc3cccc(N4CCCC4)c3)nn2)nn1 [Example 565, N-methyl-1-(4-(6-(2-(3-(pyrrolidin-1-yl)phenyl)acetamido)pyridazin-3-yl)butyl)-1H-1,2,3-triazole-4-carboxamide] | –
26 | 6.30 to 7.00 | 5.30 to 6.30 | O=C(CC1CCCCC1)Nc1cn(CCCCn2cc(C(=O)NCc3ccccn3)nn2)nn1 [Example 280, 1-{4-[4-(2-cyclohexylacetamido)-1H-1,2,3-triazol-1-yl]butyl}-N-(pyridin-2-ylmethyl)-1H-1,2,3-triazole-4-carboxamide] | –
27 | 6.30 to 7.00 | 5.30 to 6.30 | COCCNC(=O)c1nnc(CCC(F)Cn2cc(C(=O)NCc3cccc(OC(F)(F)F)c3)nn2)s1 (stereo not drawn) [Example 523, 5-{3-fluoro-4-[4-({[3-(trifluoromethoxy)phenyl]methyl}carbamoyl)-1H-1,2,3-triazol-1-yl]butyl}-N-(2-methoxyethyl)-1,3,4-thiadiazole-2-carboxamide] | –
